Columns and labels:
[1] = system: beet armyworm (BAW; Spodoptera exigua: Lepidoptera); experiment: 128-well diet tray assay on beet armyworm (BAW 50); assay type: in vivo; settings: 128-well diet tray assay; 50 μg/cm^2 of test compound on diet; second instar BAW larvae; mortality class
Procedure, shortened: (§1)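 Spodoptera exigua eggs on artificial diet in 96-well plates, surface-treated with 12 μg compound in DMSO-acetone-water; dark, 29° C, mortality at 6 d, six replicates. 128-well trays: second-instar larvae on diet treated at 50 μg/cm^2, 25° C, 14:10 light-dark, six days, mortality averaged over eight wells.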

[2] = system: beet armyworm (BAW; Spodoptera exigua: Lepidoptera); experiment: 96-well microtiter plate-based high throughput (HTS) diet bioassay on beet armyworm (BAW HTS); assay type: in vivo; settings: BAW eggs, 12 μg test compound per well, mortality at 6 d post-treatment, mortality class
Procedure, shortened: as §1

[3] = 96-well microtiter plate HTS diet assay

Row | SMILES | BAW 50 ug/cm2 [1] | BAW HTS ([2]; 96-well HTS diet bioassay) | BAW HTS [2, 3]
1 | COC1C(C)OC(ON=Cc2ccc(-n3cnc(-c4ccc(C(F)(F)F)cc4)c3)cc2)C(OC)C1OC (stereo not drawn) [Compound 57] | A (the compound was tested and at least 50 percent mortality was observed) | A (the compound was tested and at least 50 percent mortality was observed) | A (the compound was tested and at least 50 percent mortality was observed)
2 | COC1C(C)OC(ON=Cc2cccc(-c3cn(-c4ccc(OC(F)(F)F)cc4)cn3)c2)C(OC)C1OC (stereo not drawn) [Compound 58] | A (the compound was tested and at least 50 percent mortality was observed) | A (the compound was tested and at least 50 percent mortality was observed) | A (the compound was tested and at least 50 percent mortality was observed)
3 | COC1C(C)OC(ON=Cc2ccc(-c3cn(-c4ccc(OC(F)(F)F)c(C(F)(F)F)c4)cn3)cc2)C(OC)C1OC (stereo not drawn) [Compound 59] | A (the compound was tested and at least 50 percent mortality was observed) | A (the compound was tested and at least 50 percent mortality was observed) | A (the compound was tested and at least 50 percent mortality was observed)
4 | CCCc1ccc(-c2cc(-c3ccc(C=NOC4OC(C)C(OC)C(OC)C4OC)cc3)no2)cc1 (stereo not drawn) [Compound 60] | A (the compound was tested and at least 50 percent mortality was observed) | A (the compound was tested and at least 50 percent mortality was observed) | A (the compound was tested and at least 50 percent mortality was observed)
5 | CCCCOc1ccc(-c2cc(-c3ccc(C=NOC4OC(C)C(OC)C(OC)C4OC)cc3)no2)cc1 (stereo not drawn) [Compound 61] | A (the compound was tested and at least 50 percent mortality was observed) | A (the compound was tested and at least 50 percent mortality was observed) | A (the compound was tested and at least 50 percent mortality was observed)
6 | COc1ccc(-c2nc(-c3ccc(C=NOC4OC(C)C(OC)C(OC)C4OC)cc3)cs2)cc1 (stereo not drawn) [Compound 62] | A (the compound was tested and at least 50 percent mortality was observed) | A (the compound was tested and at least 50 percent mortality was observed) | A (the compound was tested and at least 50 percent mortality was observed)
7 | COC1C(C)OC(ON=Cc2ccc(-c3csc(-c4ncc(C(F)(F)F)cc4Cl)n3)cc2)C(OC)C1OC (stereo not drawn) [Compound 63] | A (the compound was tested and at least 50 percent mortality was observed) | A (the compound was tested and at least 50 percent mortality was observed) | A (the compound was tested and at least 50 percent mortality was observed)
8 | COC1C(C)OC(ON=Cc2ccc(-c3csc(-c4ccc(OCC(F)(F)F)nc4)n3)cc2)C(OC)C1OC (stereo not drawn) [Compound 64] | A (the compound was tested and at least 50 percent mortality was observed) | A (the compound was tested and at least 50 percent mortality was observed) | A (the compound was tested and at least 50 percent mortality was observed)
9 | COC1C(C)OC(ON=Cc2ccc(-c3csc(-c4ccc(C(F)(F)F)cc4)n3)cc2)C(OC)C1OC (stereo not drawn) [Compound 65] | A (the compound was tested and at least 50 percent mortality was observed) | A (the compound was tested and at least 50 percent mortality was observed) | A (the compound was tested and at least 50 percent mortality was observed)
10 | COC1C(C)OC(ON=Cc2ccc(-c3csc(-c4ccc(C(F)(F)F)nc4)n3)cc2)C(OC)C1OC (stereo not drawn) [Compound 66] | A (the compound was tested and at least 50 percent mortality was observed) | A (the compound was tested and at least 50 percent mortality was observed) | A (the compound was tested and at least 50 percent mortality was observed)
11 | COC1C(C)OC(ON=Cc2ccc(-c3ccn(-c4ccc(OC(F)(F)F)cc4)c3)cc2)C(OC)C1OC (stereo not drawn) [Compound 67] | A (the compound was tested and at least 50 percent mortality was observed) | B (either (1) the compound was tested and less than 50 percent mortality was observed or (2) the compound was not tested) | B (either (1) the compound was tested and less than 50 percent mortality was observed or (2) the compound was not tested)
12 | CCOC1C(OC)C(C)OC(ON=Cc2ccc(C3=NC(c4ccc(OC(F)(F)F)cc4)CO3)cc2)C1OC (stereo not drawn) [Compound 68] | A (the compound was tested and at least 50 percent mortality was observed) | B (either (1) the compound was tested and less than 50 percent mortality was observed or (2) the compound was not tested) | B (either (1) the compound was tested and less than 50 percent mortality was observed or (2) the compound was not tested)
13 | CO[C@@H]1[C@@H](OC)[C@H](C)O[C@@H](O/N=C/c2ccc(-n3cnc(-c4ccc(Cl)cn4)n3)cc2)[C@@H]1OC [Compound 69] | B (either (1) the compound was tested and less than 50 percent mortality was observed or (2) the compound was not tested) | B (either (1) the compound was tested and less than 50 percent mortality was observed or (2) the compound was not tested) | B (either (1) the compound was tested and less than 50 percent mortality was observed or (2) the compound was not tested)
14 | CO[C@@H]1[C@@H](OC)[C@H](C)O[C@@H](O/N=C/c2ccc(-n3cnc(-c4ccccc4F)n3)cc2)[C@@H]1OC [Compound 70] | B (either (1) the compound was tested and less than 50 percent mortality was observed or (2) the compound was not tested) | A (the compound was tested and at least 50 percent mortality was observed) | A (the compound was tested and at least 50 percent mortality was observed)
15 | CO[C@@H]1[C@@H](OC)[C@H](C)O[C@@H](O/N=C/c2ccc(-n3cnc(-c4cccnc4)n3)cc2)[C@@H]1OC [Compound 71] | B (either (1) the compound was tested and less than 50 percent mortality was observed or (2) the compound was not tested) | A (the compound was tested and at least 50 percent mortality was observed) | A (the compound was tested and at least 50 percent mortality was observed)
16 | COC1C(C)OC(ON=Cc2ccc(-n3cnc(-c4ccc(C(F)(F)F)cc4)n3)cc2)C(OC)C1OC (stereo not drawn) [Compound 72] | A (the compound was tested and at least 50 percent mortality was observed) | A (the compound was tested and at least 50 percent mortality was observed) | A (the compound was tested and at least 50 percent mortality was observed)
17 | CO[C@@H]1[C@@H](OC)[C@H](C)O[C@@H](O/N=C/c2ccc(C3=NN(c4ccccc4)CC3)cc2)[C@@H]1OC [Compound 73] | A (the compound was tested and at least 50 percent mortality was observed) | B (either (1) the compound was tested and less than 50 percent mortality was observed or (2) the compound was not tested) | B (either (1) the compound was tested and less than 50 percent mortality was observed or (2) the compound was not tested)
18 | CCCOC1C(OC)C(C)OC(ON=Cc2ccc(-n3cnc(-c4ccc(C(F)(F)F)cc4)n3)cc2)C1OC (stereo not drawn) [Compound 74] | A (the compound was tested and at least 50 percent mortality was observed) | B (either (1) the compound was tested and less than 50 percent mortality was observed or (2) the compound was not tested) | B (either (1) the compound was tested and less than 50 percent mortality was observed or (2) the compound was not tested)
19 | COC1C(C)OC(ON=Cc2ccc(-c3cn(-c4ccc(Cl)cc4)nn3)cc2)C(OC)C1OC (stereo not drawn) [Compound 75] | B (either (1) the compound was tested and less than 50 percent mortality was observed or (2) the compound was not tested) | A (the compound was tested and at least 50 percent mortality was observed) | A (the compound was tested and at least 50 percent mortality was observed)
20 | COC1C(C)OC(ON=Cc2ccc(-c3cn(-c4ccc(C)cc4)nn3)cc2)C(OC)C1OC (stereo not drawn) [Compound 76] | B (either (1) the compound was tested and less than 50 percent mortality was observed or (2) the compound was not tested) | B (either (1) the compound was tested and less than 50 percent mortality was observed or (2) the compound was not tested) | B (either (1) the compound was tested and less than 50 percent mortality was observed or (2) the compound was not tested)
21 | COc1ccc(-n2cc(-c3ccc(C=NOC4OC(C)C(OC)C(OC)C4OC)cc3)nn2)cc1 (stereo not drawn) [Compound 77] | B (either (1) the compound was tested and less than 50 percent mortality was observed or (2) the compound was not tested) | B (either (1) the compound was tested and less than 50 percent mortality was observed or (2) the compound was not tested) | B (either (1) the compound was tested and less than 50 percent mortality was observed or (2) the compound was not tested)
22 | COC1C(C)OC(ON=Cc2ccc(-c3cn(-c4ccc(C(F)(F)F)cc4)nn3)cc2)C(OC)C1OC (stereo not drawn) [Compound 78] | A (the compound was tested and at least 50 percent mortality was observed) | B (either (1) the compound was tested and less than 50 percent mortality was observed or (2) the compound was not tested) | B (either (1) the compound was tested and less than 50 percent mortality was observed or (2) the compound was not tested)
23 | COC1C(C)OC(ON=Cc2ccc(-c3cn(-c4ccc(OC(F)(F)F)cc4)nn3)cc2)C(OC)C1OC (stereo not drawn) [Compound 79] | A (the compound was tested and at least 50 percent mortality was observed) | B (either (1) the compound was tested and less than 50 percent mortality was observed or (2) the compound was not tested) | B (either (1) the compound was tested and less than 50 percent mortality was observed or (2) the compound was not tested)

From patent US8178658B2 (Dow AgroSciences, LLC, priority 2008, dated 2012)
